Reference: patent US10485235B2, “Aryloxypyrimidinyl ethers as herbicides” (FMC Corporation, priority 2015, dated 2019)

Key:
Format in all cases: in vivo
[1] = tested on: foxtail, giant (giant foxtail, Setaria faberii); assay: Test A postemergence, giant foxtail; settings: postemergence, 0 to 100 scale, 0 is no effect, 100 is complete control, approximately 10 days
Method in brief: (§1)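 Compounds, formulated in a surfactant-containing solvent mixture that is non-phytotoxic, are sprayed onto soil after seeding (preemergence) or onto young plants, one to two leaves and 2 to 10 cm high (postemergence). Response is scored visually after around 10 days, where 0 means no effect and 100 means complete control.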

[2] = tested on: foxtail, giant (giant foxtail, Setaria faberii); assay: Test A preemergence, giant foxtail; settings: Preemergence, 0 to 100 scale (0 no effect, 100 complete control)
Method in brief: as §1

kochia (Kochia scoparia) [3] = assay: Test A preemergence, kochia; settings: Preemergence, 0 to 100 scale (0 no effect, 100 complete control)
Method in brief: as §1

[4] = tested on: ragweed (common ragweed, Ambrosia elatior); assay: Test A postemergence, ragweed; settings: postemergence, 0 to 100 scale, 0 is no effect, 100 is complete control, approximately 10 days
Method in brief: as §1

[5] = tested on: ryegrass, Italian (Italian ryegrass, Lolium multiflorum); assay: Test A preemergence, Italian ryegrass; settings: Preemergence, 0 to 100 scale (0 no effect, 100 complete control)
Method in brief: as §1

[6] = tested on: ducksalad (Heteranthera limosa); assay: Test B flooded paddy test, ducksalad; settings: 250 g ai/ha, Flood; visual rating after 13 to 15 days; scale 0 to 100, 0 is no effect, 100 is complete control
Method in brief: (§2)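 Plants grown to 2-leaf stage, pots flooded to 3 cm above soil and compound applied directly to paddy water, depth maintained throughout. After 13-15 days in greenhouse, visual rating against untreated controls on 0-100 scale (0 no effect, 100 complete control).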

[7] = tested on: sedge, umbrella (small-flower umbrella sedge, Cyperus difformis); assay: Test B flooded paddy test, umbrella sedge; settings: 250 g ai/ha, Flood; visual rating after 13 to 15 days; scale 0 to 100, 0 is no effect, 100 is complete control
Method in brief: as §2

[8] = tested on: pigweed (Amaranthus retroflexus); assay: Test A postemergence, pigweed; settings: postemergence, 0 to 100 scale, 0 is no effect, 100 is complete control, approximately 10 days
Method in brief: as §1

[9] = tested on: barnyardgrass (Echinochloa crus-galli); assay: Test A preemergence, barnyardgrass; settings: Preemergence, 0 to 100 scale (0 no effect, 100 complete control)
Method in brief: as §1

corn (Zea mays) = assay: Test A postemergence, corn; settings: postemergence, 0 to 100 scale, 0 is no effect, 100 is complete control, approximately 10 days
Method in brief: as §1

[10] = tested on: galium (catchweed bedstraw, Galium aparine); assay: Test A postemergence, galium; settings: postemergence, 0 to 100 scale, 0 is no effect, 100 is complete control, approximately 10 days
Method in brief: as §1

[11] = tested on: barnyardgrass (Echinochloa crus-galli); assay: Test B flooded paddy test, barnyardgrass; settings: 250 g ai/ha, Flood; visual rating after 13 to 15 days; scale 0 to 100, 0 is no effect, 100 is complete control
Method in brief: as §2

kochia (Kochia scoparia) [12] = assay: Test A postemergence, kochia; settings: postemergence, 0 to 100 scale, 0 is no effect, 100 is complete control, approximately 10 days
Method in brief: as §1

rice (Oryza sativa) = assay: Test B flooded paddy test, rice; settings: 250 g ai/ha, Flood; visual rating after 13 to 15 days; scale 0 to 100, 0 is no effect, 100 is complete control
Method in brief: as §2

[13] = tested on: wheat (Triticum aestivum); assay: Test A postemergence, wheat; settings: postemergence, 0 to 100 scale, 0 is no effect, 100 is complete control, approximately 10 days
Method in brief: as §1

[14] = tested on: ryegrass, Italian (Italian ryegrass, Lolium multiflorum); assay: Test A postemergence, Italian ryegrass; settings: postemergence, 0 to 100 scale, 0 is no effect, 100 is complete control, approximately 10 days
Method in brief: as §1

[15] = tested on: ragweed (common ragweed, Ambrosia elatior); assay: Test A preemergence, ragweed; settings: Preemergence, 0 to 100 scale (0 no effect, 100 complete control)
Method in brief: as §1

[16] = tested on: barnyardgrass (Echinochloa crus-galli); assay: Test A postemergence, barnyardgrass; settings: postemergence, 0 to 100 scale, 0 is no effect, 100 is complete control, approximately 10 days
Method in brief: as §1

[17] = tested on: blackgrass (Alopecurus myosuroides); assay: Test A postemergence, blackgrass; settings: postemergence, 0 to 100 scale, 0 is no effect, 100 is complete control, approximately 10 days
Method in brief: as §1

[18] = tested on: pigweed (Amaranthus retroflexus); assay: Test A preemergence, pigweed; settings: Preemergence, 0 to 100 scale (0 no effect, 100 complete control)
Method in brief: as §1

Row | Compound | Plant response rating, Foxtail, Giant ([1]; 31 g ai/ha) | Plant response rating, Foxtail, Giant ([1]; 125 g ai/ha) | Plant response rating, Foxtail, Giant ([2]; 31 g ai/ha) | Plant response rating, Foxtail, Giant ([2]; 125 g ai/ha) | Plant response rating, Kochia (kochia (Kochia scoparia) [3]; 31 g ai/ha) | Plant response rating, Kochia (kochia (Kochia scoparia) [3]; 125 g ai/ha) | Plant response rating, Ragweed ([4]; 31 g ai/ha) | Plant response rating, Ragweed ([4]; 125 g ai/ha) | Plant response rating, Ryegrass, Italian ([5]; 31 g ai/ha) | Plant response rating, Ryegrass, Italian ([5]; 125 g ai/ha) | Plant response rating, Ducksalad [6] | Plant response rating, Sedge, Umbrella [7] | Plant response rating, Pigweed ([8]; 31 g ai/ha) | Plant response rating, Pigweed ([8]; 125 g ai/ha) | Plant response rating, Barnyardgrass ([9]; 31 g ai/ha) | Plant response rating, Barnyardgrass ([9]; 125 g ai/ha) | Plant response rating, Corn (corn (Zea mays); 31 g ai/ha) | Plant response rating, Corn (corn (Zea mays); 125 g ai/ha) | Plant response rating, Galium ([10]; 31 g ai/ha) | Plant response rating, Galium ([10]; 125 g ai/ha) | other results
1 | N#Cc1cccc(Oc2ncc(F)cn2)c1OC/C=C/C(F)(F)F [Compound 39] | 20 | 90 | 90 | 100 | 60 | 100 | 0 | 10 | 0 | 20 | 65 | 100 | 90 | 100 | 50 | 100 | 20 | 50 | 20 | 60 | Plant response rating, Barnyardgrass [11]: 30; Plant response rating, Kochia (kochia (Kochia scoparia) [12]; 31 g ai/ha): 90; Plant response rating, Kochia (kochia (Kochia scoparia) [12]; 125 g ai/ha): 90; Plant response rating, Rice (rice (Oryza sativa)): 15; Plant response rating, Wheat ([13]; 31 g ai/ha): 0; Plant response rating, Wheat ([13]; 125 g ai/ha): 20; Plant response rating, Ryegrass, Italian ([14]; 31 g ai/ha): 0; Plant response rating, Ryegrass, Italian ([14]; 125 g ai/ha): 50; Plant response rating, Ragweed ([15]; 31 g ai/ha): 0; Plant response rating, Ragweed ([15]; 125 g ai/ha): 10; Plant response rating, Barnyardgrass ([16]; 31 g ai/ha): 20; Plant response rating, Barnyardgrass ([16]; 125 g ai/ha): 40; Plant response rating, Blackgrass ([17]; 31 g ai/ha): 10; Plant response rating, Blackgrass ([17]; 125 g ai/ha): 60; Plant response rating, Pigweed ([18]; 31 g ai/ha): 100; Plant response rating, Pigweed ([18]; 125 g ai/ha): 100
2 | N#Cc1cccc(Oc2ncc(F)cn2)c1OCCC(F)(F)F [Compound 40] | 10 | 80 | 70 | 90 | 90 | 100 | 0 | 10 | 0 | 10 | 75 | 70 | 80 | 90 | 30 | 80 | 10 | 20 | 20 | 60 | Plant response rating, Barnyardgrass [11]: 0; Plant response rating, Kochia (kochia (Kochia scoparia) [12]; 31 g ai/ha): 50; Plant response rating, Kochia (kochia (Kochia scoparia) [12]; 125 g ai/ha): 70; Plant response rating, Rice (rice (Oryza sativa)): 0; Plant response rating, Wheat ([13]; 31 g ai/ha): 0; Plant response rating, Wheat ([13]; 125 g ai/ha): 0; Plant response rating, Ryegrass, Italian ([14]; 31 g ai/ha): 0; Plant response rating, Ryegrass, Italian ([14]; 125 g ai/ha): 10; Plant response rating, Ragweed ([15]; 31 g ai/ha): 10; Plant response rating, Ragweed ([15]; 125 g ai/ha): 90; Plant response rating, Barnyardgrass ([16]; 31 g ai/ha): 0; Plant response rating, Barnyardgrass ([16]; 125 g ai/ha): 50; Plant response rating, Blackgrass ([17]; 31 g ai/ha): 10; Plant response rating, Blackgrass ([17]; 125 g ai/ha): 30; Plant response rating, Pigweed ([18]; 31 g ai/ha): 100; Plant response rating, Pigweed ([18]; 125 g ai/ha): 100
3 | FC(F)(F)CCOc1c(Cl)cccc1Oc1ncc(Cl)cn1 [Compound 43] | 10 | 40 | 10 | 100 | 0 | 90 | 0 | 0 | 0 | 10 | 100 | 90 | 50 | 90 | 20 | 70 | 10 | 10 | 20 | 60 | Plant response rating, Barnyardgrass [11]: 0; Plant response rating, Kochia (kochia (Kochia scoparia) [12]; 31 g ai/ha): 30; Plant response rating, Kochia (kochia (Kochia scoparia) [12]; 125 g ai/ha): 80; Plant response rating, Rice (rice (Oryza sativa)): 50; Plant response rating, Wheat ([13]; 31 g ai/ha): 0; Plant response rating, Wheat ([13]; 125 g ai/ha): 0; Plant response rating, Ryegrass, Italian ([14]; 31 g ai/ha): 0; Plant response rating, Ryegrass, Italian ([14]; 125 g ai/ha): 0; Plant response rating, Ragweed ([15]; 31 g ai/ha): 0; Plant response rating, Ragweed ([15]; 125 g ai/ha): 0; Plant response rating, Barnyardgrass ([16]; 31 g ai/ha): 0; Plant response rating, Barnyardgrass ([16]; 125 g ai/ha): 30; Plant response rating, Blackgrass ([17]; 31 g ai/ha): 0; Plant response rating, Blackgrass ([17]; 125 g ai/ha): 30; Plant response rating, Pigweed ([18]; 31 g ai/ha): 40; Plant response rating, Pigweed ([18]; 125 g ai/ha): 100
4 | FCCCOc1c(Cl)cccc1Oc1ncc(Cl)cn1 [Compound 44] | 0 | 20 | 10 | 80 | 0 | 40 | 0 | 0 | 0 | 0 | 70 | 30 | 30 | 70 | 10 | 20 | 0 | 10 | 10 | 20 | Plant response rating, Barnyardgrass [11]: 0; Plant response rating, Kochia (kochia (Kochia scoparia) [12]; 31 g ai/ha): 20; Plant response rating, Kochia (kochia (Kochia scoparia) [12]; 125 g ai/ha): 70; Plant response rating, Rice (rice (Oryza sativa)): 0; Plant response rating, Wheat ([13]; 31 g ai/ha): 0; Plant response rating, Wheat ([13]; 125 g ai/ha): 0; Plant response rating, Ryegrass, Italian ([14]; 31 g ai/ha): 0; Plant response rating, Ryegrass, Italian ([14]; 125 g ai/ha): 0; Plant response rating, Ragweed ([15]; 31 g ai/ha): 0; Plant response rating, Ragweed ([15]; 125 g ai/ha): 0; Plant response rating, Barnyardgrass ([16]; 31 g ai/ha): 0; Plant response rating, Barnyardgrass ([16]; 125 g ai/ha): 10; Plant response rating, Blackgrass ([17]; 31 g ai/ha): 0; Plant response rating, Blackgrass ([17]; 125 g ai/ha): 10; Plant response rating, Pigweed ([18]; 31 g ai/ha): 10; Plant response rating, Pigweed ([18]; 125 g ai/ha): 100
